# Reference: patent publication US11312719B2, “9-substituted amino triazolo quinazoline derivatives as adenosine receptor antagonists, pharmaceutical compositions and their use” (Merck Sharp & Dohme Corp., priority 2018, dated 2022)
# What was measured:
# [1] = target: human A2B receptors (Homo sapiens (Human), UniProt P29275); test: A2B antagonism in cAMP cell-based assay (LANCE cAMP, HEK293); conditions: HEK293 cells expressing human A2B receptor
# Method in brief: (§1)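 HEK293 cells expressing human A2A or A2B, in HBSS/5 mM HEPES/200 nM rolipram, were preincubated with compound (0.5–10,000 nM, 0.25% DMSO) 30 min at 37° C. Adenosine was then added from 300 nM (A2A) or 600 nM (A2B) solution for 30 min.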
# [2] = target: human A2A receptors (Homo sapiens (Human), UniProt P29274); test: A2A antagonism in cAMP cell-based assay (LANCE cAMP, HEK293); conditions: HEK293 cells expressing human A2A receptor
# Method in brief: as §1
# Sequence of human A2A receptors (P29274 whole entry): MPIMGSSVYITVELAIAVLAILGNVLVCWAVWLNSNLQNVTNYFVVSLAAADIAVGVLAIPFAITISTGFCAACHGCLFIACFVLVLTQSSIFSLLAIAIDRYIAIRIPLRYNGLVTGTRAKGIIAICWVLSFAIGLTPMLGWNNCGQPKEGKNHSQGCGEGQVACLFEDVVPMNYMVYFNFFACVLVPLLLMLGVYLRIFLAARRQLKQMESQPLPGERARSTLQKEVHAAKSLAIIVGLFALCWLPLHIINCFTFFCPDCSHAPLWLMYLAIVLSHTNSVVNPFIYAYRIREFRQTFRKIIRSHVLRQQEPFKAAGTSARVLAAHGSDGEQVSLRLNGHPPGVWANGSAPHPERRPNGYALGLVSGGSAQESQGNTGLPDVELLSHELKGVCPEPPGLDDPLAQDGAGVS
# Sequence of human A2B receptors (P29275 whole entry): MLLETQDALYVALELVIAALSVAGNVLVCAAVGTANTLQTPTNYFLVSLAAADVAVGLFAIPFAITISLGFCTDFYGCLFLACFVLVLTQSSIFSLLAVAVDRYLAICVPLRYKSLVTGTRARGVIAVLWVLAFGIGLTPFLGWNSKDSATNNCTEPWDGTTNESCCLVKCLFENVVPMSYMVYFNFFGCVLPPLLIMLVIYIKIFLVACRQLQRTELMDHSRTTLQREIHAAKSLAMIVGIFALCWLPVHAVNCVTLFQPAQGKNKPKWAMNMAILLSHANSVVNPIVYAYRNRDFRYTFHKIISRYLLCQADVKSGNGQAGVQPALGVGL
Compound,IC50 [1],IC50 [2]
"COc1cc2nc(N)n3nc(C4CCC(C)N(c5cnn(CC6(O)CC6)c5)C4)nc3c2cc1F (single isomer, unassigned) [Example 272, 1-((4-((2S,5R or 2R,5S)-5-(5-amino-9-fluoro-8-methoxy-[1,2,4]triazolo[1,5-c]quinazolin-2-yl)-2-methylpiperidin-1-yl)-1H-pyrazol-1-yl)methyl)cyclopropan-1-ol]",5800 nM,43.6 nM
"COc1cc2nc(N)n3nc(C4CCC(C)N(c5cnn(CC6(O)CC6)c5)C4)nc3c2cc1F (single isomer, unassigned) [Example 273, 1-((4-((2R,5S or 2S,5R)-5-(5-amino-9-fluoro-8-methoxy-[1,2,4]triazolo[1,5-c]quinazolin-2-yl)-2-methylpiperidin-1-yl)-1H-pyrazol-1-yl)methyl)cyclopropan-1-ol]",26.7 nM,1.2 nM
"COc1cc2nc(N)n3nc(C4CC(C)CN(c5cnn(CC(C)(C)O)c5C)C4)nc3c2cc1F (single isomer, unassigned) [Example 274, 1-((4-((3R,5S or 3S,5R)-5-(5-amino-9-fluoro-8-methoxy-[1,2,4]triazolo[1,5-c]quinazolin-2-yl)-5-methylpiperidin-1-yl)-5-methyl-1H-pyrazol-1-yl)-2-methylpropan-2-ol]",70.5 nM,0.7 nM
"COc1cc2nc(N)n3nc(C4CC(C)CN(c5cnn(CC(C)(C)O)c5C)C4)nc3c2cc1F (single isomer, unassigned) [Example 275, 1-((4-((3S,5R or 3R,5S)-5-(5-amino-9-fluoro-8-methoxy-[1,2,4]triazolo[1,5-c]quinazolin-2-yl)-5-methylpiperidin-1-yl)-5-methyl-1H-pyrazol-1-yl)-2-methylpropan-2-ol]",2470 nM,15.6 nM
"(R or S)-1-(4-((2S,5R or 2R5S)-5-(5-amino-9-fluoro- 8-methoxy-[1,2,4]triazolo[1,5-c]quinazolin-2-yl)-2- methylpiperidin-1-yl)-1H-pyrazol-1-yl)propan-2-ol [Example 240]",22.6 nM,1.2 nM
"(S or R)-1-(4-((2S,5R or 2R5S)-5-(5-amino-9-fluoro- 8-methoxy-[1,2,4]triazolo[1,5-c]quinazolin-2-yl)-2- methylpiperidin-1-yl)-1H-pyrazol-1-yl)propan-2-ol [Example 241]",21.7 nM,1.3 nM

# Second part, the compound after the results:
IC50 [1],IC50 [2],Compound
56.9 nM,3.8 nM,"COc1cc2nc(N)n3nc([C@@H]4CCCN(c5cnn(C(C)(C)CO)c5)C4)nc3c2cc1F [Example 151, (R)-2-(4-(3-(5-amino-9-fluoro-8-methoxy-[1,2,4]triazolo[1,5-c]quinazolin-2-yl)piperidin-1-yl)-1H-pyrazol-1-yl)-2-methylpropan-1-ol]"
371 nM,5.9 nM,"COc1cc2nc(N)n3nc([C@@H]4CCCN(c5cnn(CCC(C)(C)O)c5)C4)nc3c2cc1F [Example 152, (R)-4-(4-(3-(5-amino-9-fluoro-8-methoxy-[1,2,4]triazolo[1,5-c]quinazolin-2-yl)piperidin-1-yl)-1H-pyrazol-1-yl)-2-methylbutan-2-ol]"
720 nM,7.4 nM,"CC(C)(O)Cn1cc(N2CCC[C@@H](c3nc4c5cc(F)c(OC(F)F)cc5nc(N)n4n3)C2)cn1 [Example 153, (R)-1-(4-(3-(5-amino-8-(difluoromethoxy)-9-fluoro-[1,2,4]triazolo[l,5-c]quinazolin-2-yl)piperidin-l-yl)-1H-pyrazol-1-yl)-2-methylpropan-2-ol]"
974 nM,1.2 nM,"Cc1nn(CC(C)(C)O)cc1N1CCC[C@@H](c2nc3c4cc(F)c(OC(F)F)cc4nc(N)n3n2)C1 [Example 154, (R)-1-(4-(3-(5-amino-8-(difluoromethoxy)-9-fluoro-[1,2,4]triazolo[l,5-c]quinazolin-2-yl)piperidin-l-yl)-3-methyl-1H-pyrazol-1-yl)-2-methylpropan-2-ol]"
